This passage reports IC50 results from US11124506B2, “Salts and crystal forms of diaza-benzofluoranthrene compounds” (HARBIN PHARMACEUTICAL GROUP CO., LTD. GENERAL …, priority 2016, dated 2021).

This assay addresses T1, PDE1A (Homo sapiens, UniProt P54750).
T1 construct: purchased SignalChem
The experiment in a line: In vitro detection of phosphodiesterase (PDE), fluorescence polarization detection of AMP/GMP production. It is filed as biochemical. As to conditions: human enzyme (SignalChem), cAMP or cGMP substrate, Ca2+-calmodulin cofactor; read-out: IC50 values measured by PDE1 detection: PDE1. As for the experimental part: Experimental Example 1: The In Vitro Detection of Phosphodiesterase (PDE)
Principle of the Experiment:
The assay measures PDE1A enzyme activity based on fluorescence polarization detection of AMP/GMP production. The principle of the reaction is to replace the binding of AMP/GMP to its antibody by AlexaFluor 633 labeled AMP/GMP.
Reaction buffer: 10 mM Tris-HCl, pH=7.5, 5 mM magnesium chloride, 0.01% Brij 35, 1 mM DTT, and 1% DMSO;
Enzyme substrate: […] cAMP or cGMP (Ca^2+-calmodulin as a cofactor of PDE1A);
Transcreener® AMP2/GMP2 antibody;
AMP2/GMP2 AlexaFluor 633 marker.
Experimental Procedures and Methods:
1. Human enzyme to be tested (purchased from SignalChem) and the substrate were diluted with a freshly prepared reaction buffer.
2. An enzyme solution (concentration: 3 pM) was added to the wells of a reaction plate.
3. […]
7. The following devices were used for detection: EnVision (PerkinElmer), Cy5FP Ex FP 620, Em S-pol 688/P-pol 688, FP mirror D658fp/D688; fluorescence polarization was detected using Ex/Em 620/688.
Enzymatic activity corresponding to the FP signal was retrieved in an AMP/GMP standard curve using DMSO as a control in an Excel table. […] An analysis was performed using GraphPad Prism and IC50 values were calculated.
On the technique in general: In fluorescence polarisation assays a small probe gives low polarisation when free and higher when bound to something large.

In the case of `CC[C@@]12C=C(c3nc(C)no3)n3c4c(c5ccccc53)CCN(CCC1)[C@H]42` [Compound 1], the 50% inhibitory concentration (IC50) – broadly, the concentration at which inhibition is half-maximal – lay in the range of 1 to 20 µM.
